Structures can show the parent of a compound that is named as a salt.
How the values were obtained:
5-HT2A [1] = target: T1, 5-HT2A (Rattus norvegicus, UniProt P14842); assay: 5-HT2 Receptor Binding Assay ([125I]DOI competition); details: [125I]DOI binding, post mortem rat or human cerebral cortex homogenates
Method: 5-HT2 Receptor Binding Assay
Aliquots of post mortem rat or human cerebral cortex homogenates (400 μL) dispersed in 50 mM Tris HCl buffer (pH 7.4) are incubated with [^125I]DOI (80 pM final) in the absence or presence of methiothepin (10 μM final) to define total and non-specific binding, respectively, in a total volume of 0.5 mL. The assay mixture is incubated for 1 hour at 23° C. in polypropylene tubes and the assays terminated by rapid vacuum filtration over Whatman GF/13 glass fiber filters previously soaked in 0.3% polyethyleneimine using ice-cold buffer. Test compounds (at different concentrations) are substituted for methiothepin. Filter-bound radioactivity is determined by scintillation spectrometry on a beta counter. The data are analyzed using a non-linear, iterative curve-fitting computer program [Trends Pharmacol. Sci., 16, 413 (1995)] to determine the compound affinity parameter. The concentration of the compound needed to inhibit the [^125I]DOI binding by 50% of the maximum is termed the […].

5-HT2A [2] = target: T1, 5-HT2A; assay: 5-HT2 Functional Assay: [Ca2+]i Mobilization (FLIPR); type: cell-based; set-up: endogenous in cells; host or cells: A7r5 rat vascular smooth muscle cells; details: for EC50: [Ca2+]i mobilization, A7r5 rat vascular smooth muscle cells; for Emax: percentage of a maximum 5-HT-induced response, A7r5 cells
Method: 5-HT2 Functional Assay: [Ca^2+]i Mobilization
The receptor-mediated mobilization on intracellular calcium ([Ca^2+]i) was studied using the Fluorescence Imaging Plate Reader (FLIPR) instrument. Rat vascular smooth muscle cells, A7r5, were grown in a normal media of DMEM/10% FBS and 10 μg/mL gentamycin. Confluent cell monolayers were trypsinized, pelleted, and re-suspended in normal media. Cells were seeded in a 50 μL volume at a density of 20,000 cells/well in a black wall, 96-well tissue culture plate and grown for 2 days.
On the day of the experiment, one vial of FLIPR Calcium Assay Kit dye was re-suspended in 50 mL of a FLIPR buffer consisting of Hank's Balanced Salt Solution (HBSS), 20 mM HEPES, and 2.5 mM probenecid, pH 7.4. Cells were loaded with the calcium-sensitive dye by addition of an equal volume ([…]) to each well of the 96-well plate and incubated with dye for 1 h at 23° C.
Typically, test compounds were stored at 25 μM in 50% DMSO/50% Ethanol solvent. Compounds were diluted 1:50 in 20% DMSO/20% Ethanol. For “hit” screening, compounds were further diluted 1:10 in FLIPR buffer and tested at a final concentration of 10 μM. For dose-response experiments, compounds were diluted 1:50 in FLIPR buffer and serially diluted 1:10 to give a 5- or 8-point dose-response curve.
The compound plate and cell plate were placed in the FLIPR instrument. At the beginning of an experimental run, a signal test was performed to check the basal fluorescence signal from the dye-loaded cells and the uniformity of the signal across the plate. The basal fluorescence was adjusted between 8000-12000 counts by modifying the exposure time, the camera F-stop, or the laser power. Instrument settings for a typical assay were the following: laser power 0.3-0.6 W, camera F-stop F/2, and exposure time 0.4 sec. An aliquot (25 μL) of the test compound was added to the existing 100 μL dye-loaded cells at a dispensing speed of 50 μL/sec. Fluorescence data were collected in real-time at 1.0 sec intervals for the first 60 secs and at 6.0 sec intervals for an additional 120 secs. Responses were measured as peak fluorescence intensity minus basal and where appropriate were expressed as a percentage of a maximum 5-HT-induced response [Emax %]. When the compounds were tested as antagonists against 10 μM 5-HT, they were incubated with the cells for 15 minutes prior to the addition of 5-HT.

T1 sequence (P14842 whole entry): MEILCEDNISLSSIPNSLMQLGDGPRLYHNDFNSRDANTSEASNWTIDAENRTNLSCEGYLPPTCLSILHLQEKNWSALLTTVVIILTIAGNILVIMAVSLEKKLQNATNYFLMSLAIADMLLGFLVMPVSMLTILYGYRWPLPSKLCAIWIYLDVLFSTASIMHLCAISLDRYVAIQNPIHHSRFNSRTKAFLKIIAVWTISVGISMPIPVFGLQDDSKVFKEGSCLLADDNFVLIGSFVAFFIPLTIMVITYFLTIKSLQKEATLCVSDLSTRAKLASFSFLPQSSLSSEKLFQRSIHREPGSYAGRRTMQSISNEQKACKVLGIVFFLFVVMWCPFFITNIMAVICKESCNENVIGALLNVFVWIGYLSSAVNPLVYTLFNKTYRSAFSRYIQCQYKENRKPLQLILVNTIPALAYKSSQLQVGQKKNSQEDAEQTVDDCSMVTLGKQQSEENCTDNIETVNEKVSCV

SMILES | melting point [°C] | IC50 (5-HT2A [1]) [nM] | EC50 (5-HT2A [2]) [nM] | Emax (5-HT2A [2]) [%]
CCOC(=O)c1ccc2cnn(C[C@H](C)N)c2c1 (as salt: fumaric acid salt) [Example 1, 1-((S)-2-Aminopropyl)-1H-indazole-6-carboxylic acid ethyl ester] | 150 to 152 | – | – | –
CCOC(=O)c1ccc2cnn(C[C@H](C)N)c2c1 [Example 1, 1-((S)-2-Aminopropyl)-1H-indazole-6-carboxylic acid ethyl ester] | – | 10 | 837 | 86
C[C@H](N)Cn1ncc2ccc(C(N)=O)cc21 [Example 2, 1-((S)-2-Aminopropyl)-1H-indazole-6-carboxylic acid amide] | 170 to 172 | 5.9 | 465 | 90

Source: US7439262B1, “Substituted 1-alkylamino-1-H-indazoles for the treatment of glaucoma” (Alcon, Inc., priority 2003, dated 2008)
